The assay concerns Patient Sample GS-640, kidney tissue (renal cell carcinoma). Kind of assay: Tumor fragment growth and invasion (cell migration) in three-dimensional gel matrix, 48-well plate chemotherapy screening. The class given is cell-based, human. Conditions: 5 days treatment; for number of cells that have grown and invaded away from the solid tumor fragment / distance of cell migration away from the solid tumor fragment: 37 degrees Celsius; for number of cells that have grown and invaded away from the solid tumor fragment: 5% CO2, photomicrograph compared with untreated control (FIG. 5); for response to the drug (overall): renal cell carcinoma patient sample; for distance of cell migration away from the solid tumor fragment: 5% CO2, photomicrograph. The source says:
FIGS. 1-8 are photographic and photomicrographic images which show, by way of example, use of the means and methods of the present invention with respect to a tissue sample removed from a patient. With respect to FIGS. 1-8, Patient Sample GS-640, comprising kidney tissue, was removed from the patient by a surgeon during surgery.
Tissue analysis and screening in accordance with the invention were requested by the surgeon, and proper consent was obtained from the patient prior to surgical removal of a sample quantity of tissue from the RHS Kidney. The patient was diagnosed with renal cell carcinoma. A tissue sample of approximately 1 gram in quantity was removed from the patient during surgery, and was placed into a 25 ml sample jar, and immersed in sterile saline. The tumor tissue was kept at 4 degrees centigrade until processed for the screening of therapeutic compounds in accordance with the means and methods of the invention. All procedures were performed under sterile conditions in a bio-safety laminar flow hood.
FIG. 1 is a photographic image showing the mechanical division of the sample into portions to be tested. The sample has been prepared by dissecting away any non viable tissue and blood prior to mincing into 1-2 mm pieces using sterile disposable scalpels.
FIG. 2 is a photographic image showing tumor sample portions which have been placed into each well of a 48 well plate, and been submersed in a gel matrix mixture according to the invention. After insertion of the portions, the mixture was allowed to form into a gel at room temperature for approximately 30 minutes. Once the gel formed around the fully immersed tumor fragments, nutrient rich media was added as a liquid overlay that permeated the entire gel and tumor fragment.
Each different chemotherapy and or dose of chemotherapy was added to a set of 6 wells out of the 48-well plate. A total of 7 different chemotherapies were assessed in this plate. One set of six wells were not treated with drug and thus acted as ‘control conditions’ for tumor fragment growth and invasion. Each of the eight vertical lanes containing six separate wells was marked with a symbol for each chemotherapy/dose used and noted correspondingly on data collection sheets. […] The plates were then placed in a conventional 37 degree Celsius incubator at 5% CO2.
This image is thus representative of all wells at Day 0 with or without chemotherapeutics. Images were made with a 400× magnification phase contrast micrograph using ZEISS camera specs.
Noteworthy is the halo of cells and increased cell density as compared with the results shown at Day 3 of the test. The lines on the images have been drawn to show the distance measurements within which approximately 95% of the migrating cells have migrated away from the margins of the tissue sample.

As to `N.N.[Cl][Pt][Cl]` [Cisplatin], the “number of cells that have grown and invaded away from the solid tumor fragment” value (“number” below) was “identical in appearance and cell numbers to the control sample”; the “response to the drug (overall)” value is given as “failed chemotherapy”.

As for `CC(=O)O[C@@]12CO[C@@H]1C[C@H](O)[C@@]1(C)C(=O)[C@H](O)C3=C(C)[C@@H](OC(=O)[C@H](O)[C@@H](NC(=O)OC(C)(C)C)c4ccccc4)C[C@@](O)([C@@H](OC(=O)c4ccccc4)[C@H]21)C3(C)C` [Docetaxol, Docetaxel], the “distance of cell migration away from the solid tumor fragment” value is “longer migratory distance than treatment with Taxol”; the “number” value is “fewer number of invading cells than the control”; the “response to the drug (overall)” value was “moderate response”.

In the case of `CC(=O)O[C@H]1C(=O)[C@@]2(C)[C@H]([C@H](OC(=O)c3ccccc3)[C@]3(O)C[C@H](OC(=O)[C@H](O)[C@@H](NC(=O)c4ccccc4)c4ccccc4)C(C)=C1C3(C)C)[C@]1(OC(C)=O)CO[C@@H]1C[C@@H]2O` [Taxol, Paclitaxel], the “distance of cell migration away from the solid tumor fragment” value was “a drop in both the distance and the number of cells”; the “number” value is “a drop in both the distance and the number of cells”.

The record behind these values is patent US8007991B2, “Three-dimensional physiological matrices for oncological testing, and methods for their production and use” (priority 2006, dated 2011).
